One block for each compound: values may come before it.
How the values were obtained:
[1] = everolimus; cited from earlier work
[2] = Everolimus pharmacokinetics in whole blood (HPLC-MS/MS), single-agent and combined with metformin; format: in vivo, human; details: for k el: read-out: λz (converted); for half-life: all 7 patients, mean (SD)
Experimental: (§1) The pharmacokinetic parameters were calculated using PKSolver. All P values were calculated using the R statistical programming language (paired Student’s t-test).

clinical = test: clinical
Experimental: as §1

endometrial cancer = details: cited from earlier work

Cmax ([2]; everolimus 5 mg qd, in combination with metformin 500 mg bid, n = 2): 39.45 ng/mL
Cmax ([2]; everolimus 5 mg qd, single-agent, n = 2): 34.80 ng/mL
AUC ([2]; everolimus 10 mg qd, single-agent, AUC t = 0 to 24 h, n = 5, mean (SD)): 0.713 (0.35) mg/l*h
AUC ([2]; human, whole blood, oral, 5 mg, everolimus 5 mg qd, single-agent, n = 2, read-out: AUC): 282 ng·h/mL
k el ([2]; human, whole blood, oral, 5 mg, everolimus 5 mg qd, single-agent, n = 2): 1.22e-05 s⁻¹
k el ([2]; human, whole blood, oral, 10 mg, everolimus 10 mg qd, single-agent, n = 5, mean (SD)): 7.78e-06 s⁻¹
clearance ([2]; human, whole blood, oral, everolimus as single agent): 162 mL/min
clearance ([2]; human, whole blood, oral, everolimus in combination with metformin): 300 mL/min
AUC ([2]; human, whole blood, oral, everolimus 5 mg qd, in combination with metformin, n = 2, read-out: AUC): 254 ng·h/mL
k el ([2]; human, whole blood, oral, everolimus 5 mg qd, in combination with metformin, n = 2): 9.72e-06 s⁻¹
AUC ([2]; human, whole blood, oral, everolimus 10 mg qd, in combination with metformin, AUC t = 0 to 24 h, n = 5, mean (SD), read-out: AUC): 639 ng·h/mL
k el ([2]; human, whole blood, oral, everolimus 10 mg qd, in combination with metformin, n = 5, mean (SD)): 8.06e-06 s⁻¹
half-life ([2]; human, whole blood, oral, everolimus in combination with metformin (day 15)): 23.2 h
half-life ([2]; human, whole blood, oral, everolimus single-agent (day 7)): 23.1 h
Cmax ([2]; human, whole blood, oral, everolimus 10 mg qd, single-agent (day 7), n = 5, mean (SD), read-out: Cmax): 73.1 ng/mL
Structure (SMILES): CO[C@H]1C[C@@H]2CC[C@@H](C)[C@@](O)(O2)C(=O)C(=O)N2CCCC[C@H]2C(=O)O[C@H]([C@H](C)C[C@@H]2CC[C@@H](OCCO)[C@H](OC)C2)CC(=O)[C@H](C)/C=C(\C)[C@@H](O)[C@@H](OC)C(=O)[C@H](C)C[C@H](C)/C=C/C=C/C=C/1C [everolimus]
elimination half-life (t1/2) [1]: 30 h

Structure (SMILES): CN(C)C(=N)N=C(N)N [metformin]
AUC (clinical; human, in vivo, 500 mg): 8320 ng·h/mL
k el (clinical; human, in vivo, 500 mg): 4.72e-05 s⁻¹
Cmax (clinical; metformin 500 mg bid, in combination with everolimus (day 15), n = 5, mean (SD)): 1027 (261) μg/l
rate of disease progression (endometrial cancer; self-reported metformin use with an mTOR inhibitor, vs. 33% without): 12%
response rate to an mTOR inhibitor (endometrial cancer; self-reported metformin use, 94 patients, three trials of various mTOR inhibitors, vs. 7% without): 18%

Reference: article PMC5805805 (Investigational New Drugs, 2017)
